BigSolDB 2.1

CC(C)COc1ccc(B(O)O)cc1
Conditions	solubility (mole fraction)
in 3-pentanone, 294.65 K	0.114
in 3-pentanone, 298.65 K	0.128
in 3-pentanone, 303.75 K	0.146
in 3-pentanone, 307.25 K	0.172
in 3-pentanone, 309.35 K	0.187
in 3-pentanone, 313.65 K	0.205
in 3-pentanone, 317.65 K	0.232
in 3-pentanone, 325.55 K	0.265
in 3-pentanone, 331.35 K	0.31
in 3-pentanone, 334.65 K	0.335
in 3-pentanone, 339.65 K	0.367
in 3-pentanone, 349.65 K	0.411
in acetone, 294.45 K	0.127
in acetone, 296.85 K	0.132
in acetone, 299.75 K	0.139
in acetone, 304.75 K	0.149
in acetone, 309.45 K	0.16
in acetone, 312.25 K	0.171
in acetone, 318.75 K	0.19
in acetone, 322.55 K	0.204
in acetone, 325.35 K	0.218
in chloroform, 296.25 K	0.0212
in chloroform, 299.95 K	0.0253
in chloroform, 303.65 K	0.0304
in chloroform, 308.65 K	0.0367
in chloroform, 309.65 K	0.0415
in chloroform, 310.85 K	0.0471
in chloroform, 312.65 K	0.0555
in chloroform, 316.35 K	0.0668
in chloroform, 319.65 K	0.0785
in chloroform, 322.35 K	0.0936
in chloroform, 328.75 K	0.115
in chloroform, 334.25 K	0.146
in chloroform, 338.65 K	0.202
in chloroform, 338.75 K	0.183
in chloroform, 343.15 K	0.254
in chloroform, 346.65 K	0.279
in chloroform, 352.65 K	0.324
in chloroform, 353.85 K	0.335
in dipropyl ether, 296.65 K	0.0352
in dipropyl ether, 303.15 K	0.0416
in dipropyl ether, 308.15 K	0.0497
in dipropyl ether, 308.45 K	0.0587
in dipropyl ether, 312.65 K	0.0705
in dipropyl ether, 315.65 K	0.082
in dipropyl ether, 320.15 K	0.0995
in dipropyl ether, 325.55 K	0.128
in dipropyl ether, 330.05 K	0.165
in dipropyl ether, 333.15 K	0.196
in dipropyl ether, 336.65 K	0.229
in dipropyl ether, 339.45 K	0.261
in dipropyl ether, 344.15 K	0.314
in dipropyl ether, 348.65 K	0.345
in methylcyclohexane, 318.55 K	0.0096
in methylcyclohexane, 323.65 K	0.0191
in methylcyclohexane, 328.45 K	0.03
in methylcyclohexane, 334.75 K	0.0514
in methylcyclohexane, 343.55 K	0.118
in methylcyclohexane, 344.65 K	0.204
in methylcyclohexane, 345.55 K	0.266
in methylcyclohexane, 350.95 K	0.322

CC(C)COc1cccc(B(O)O)c1
Conditions	solubility (mole fraction)
in 3-pentanone, 303.65 K	0.191
in 3-pentanone, 307.15 K	0.204
in 3-pentanone, 314.15 K	0.233
in 3-pentanone, 318.75 K	0.258
in 3-pentanone, 335.65 K	0.289
in 3-pentanone, 339.15 K	0.329
in 3-pentanone, 343.15 K	0.354
in 3-pentanone, 348.15 K	0.396
in 3-pentanone, 351.15 K	0.443
in 3-pentanone, 353.65 K	0.488
in chloroform, 297.15 K	0.018
in chloroform, 302.65 K	0.0229
in chloroform, 306.65 K	0.0278
in chloroform, 310.25 K	0.0327
in chloroform, 313.95 K	0.0408
in chloroform, 318.35 K	0.0507
in chloroform, 323.05 K	0.067
in chloroform, 328.55 K	0.0899
in chloroform, 331.75 K	0.131
in chloroform, 333.25 K	0.19
in dipropyl ether, 298.65 K	0.103
in dipropyl ether, 302.95 K	0.116
in dipropyl ether, 305.15 K	0.126
in dipropyl ether, 308.45 K	0.137
in dipropyl ether, 312.15 K	0.155
in dipropyl ether, 314.65 K	0.172
in dipropyl ether, 319.75 K	0.198
in dipropyl ether, 323.45 K	0.232
in dipropyl ether, 329.95 K	0.275
in dipropyl ether, 333.95 K	0.34
in methylcyclohexane, 305.95 K	0.0033
in methylcyclohexane, 308.45 K	0.0049
in methylcyclohexane, 309.95 K	0.0065
in methylcyclohexane, 315.75 K	0.0082
in methylcyclohexane, 318.65 K	0.0147
in methylcyclohexane, 322.65 K	0.0343
in methylcyclohexane, 325.25 K	0.0556
in methylcyclohexane, 327.05 K	0.0817
in methylcyclohexane, 329.65 K	0.132
in methylcyclohexane, 331.75 K	0.154

CC(C)COc1ccccc1B(O)O
Conditions	solubility (mole fraction)
in 3-pentanone, 295.65 K	0.301
in 3-pentanone, 296.55 K	0.288
in 3-pentanone, 297.65 K	0.304
in 3-pentanone, 298.55 K	0.324
in 3-pentanone, 300.65 K	0.306
in 3-pentanone, 300.85 K	0.322
in 3-pentanone, 302.55 K	0.322
in 3-pentanone, 303.05 K	0.338
in 3-pentanone, 305.35 K	0.356
in 3-pentanone, 306.05 K	0.342
in 3-pentanone, 308.35 K	0.362
in 3-pentanone, 309.05 K	0.378
in 3-pentanone, 312.05 K	0.376
in 3-pentanone, 312.25 K	0.396
in 3-pentanone, 313.85 K	0.426
in 3-pentanone, 318.15 K	0.407
in 3-pentanone, 318.85 K	0.444
in 3-pentanone, 319.15 K	0.478
in 3-pentanone, 319.55 K	0.455
in 3-pentanone, 322.55 K	0.482
in 3-pentanone, 324.85 K	0.503
in 3-pentanone, 325.55 K	0.526
in 3-pentanone, 328.85 K	0.547
in 3-pentanone, 331.25 K	0.609
in 3-pentanone, 337.25 K	0.67
in 3-pentanone, 345.35 K	0.766
in acetone, 293.65 K	0.281
in acetone, 300.35 K	0.314
in acetone, 303.65 K	0.339
in acetone, 309.35 K	0.372
in acetone, 315.65 K	0.411
in acetone, 320.75 K	0.467
in acetone, 327.35 K	0.533
in acetone, 333.95 K	0.611
in acetone, 337.75 K	0.639
in acetone, 341.35 K	0.695
in acetone, 344.45 K	0.737
in acetone, 347.75 K	0.8
in acetone, 350.55 K	0.823
in acetone, 353.65 K	0.872
in acetone, 355.75 K	0.901
in chloroform, 295.15 K	0.277
in chloroform, 299.15 K	0.307
in chloroform, 304.45 K	0.338
in chloroform, 308.15 K	0.361
in chloroform, 313.15 K	0.402
in chloroform, 317.65 K	0.432
in chloroform, 320.65 K	0.465
in chloroform, 325.75 K	0.514
in chloroform, 328.65 K	0.547
in chloroform, 335.05 K	0.618
in chloroform, 336.15 K	0.637
in chloroform, 341.15 K	0.7
in chloroform, 344.75 K	0.715
in chloroform, 348.45 K	0.774
in chloroform, 350.25 K	0.822
in chloroform, 352.15 K	0.866
in chloroform, 355.15 K	0.895
in dipropyl ether, 294.15 K	0.157
in dipropyl ether, 300.35 K	0.185
in dipropyl ether, 304.35 K	0.209
in dipropyl ether, 311.05 K	0.259
in dipropyl ether, 316.45 K	0.305
in dipropyl ether, 320.15 K	0.345
in dipropyl ether, 325.05 K	0.405
in dipropyl ether, 329.15 K	0.446
in dipropyl ether, 330.15 K	0.463
in dipropyl ether, 332.15 K	0.499
in dipropyl ether, 335.05 K	0.532
in dipropyl ether, 338.65 K	0.606
in dipropyl ether, 340.75 K	0.641
in dipropyl ether, 345.65 K	0.73
in dipropyl ether, 348.75 K	0.764
in dipropyl ether, 351.65 K	0.813
in dipropyl ether, 353.05 K	0.857
in methylcyclohexane, 300.05 K	0.0138
in methylcyclohexane, 305.15 K	0.0169
in methylcyclohexane, 305.85 K	0.0208
in methylcyclohexane, 309.15 K	0.0262
in methylcyclohexane, 312.25 K	0.0333
in methylcyclohexane, 315.55 K	0.046
in methylcyclohexane, 318.15 K	0.0589
in methylcyclohexane, 321.95 K	0.0885
in methylcyclohexane, 323.35 K	0.103
in methylcyclohexane, 324.35 K	0.118
in methylcyclohexane, 325.95 K	0.139
in methylcyclohexane, 327.05 K	0.163
in methylcyclohexane, 329.05 K	0.198
in methylcyclohexane, 331.25 K	0.21
in methylcyclohexane, 331.85 K	0.236
in methylcyclohexane, 332.95 K	0.253
in methylcyclohexane, 334.95 K	0.328
in methylcyclohexane, 336.05 K	0.354
in methylcyclohexane, 336.95 K	0.371
in methylcyclohexane, 340.05 K	0.479
in methylcyclohexane, 343.75 K	0.567
in methylcyclohexane, 344.45 K	0.628
in methylcyclohexane, 349.15 K	0.731
